In US20060252073A1, “Compositions and methods for the treatment of cancer” (Regents of the University of Michigan, priority 2005, published 2006):
Where “and” joins values, the source holds several entries; their conditions need not be identical. Identical values can stand only once.

How the values were obtained:
Pten^fl/flMx-1-Cre mice = assay: Rapamycin given immediately after Pten deletion (pIpC) in Pten fl/fl Mx-1-Cre mice; type: in vivo; details: daily injections for 7 days after pIpC treatment
Protocol: Administration of polyinosine-polycytidine (pIpC) to induce Mx-1-Cre expression. pIpC (Sigma P-0913) was resuspended with DPBS at a concentration of 2 mg/ml and passed through a 0.22 uM filter (See, e.g., Mikkola et al., Nature 421, 54751 (2003)). Mice received 25 ug of pIpC/g of body mass every other day for 2 weeks.
(§1) Administration of Rapamycin.
(§2) Histopathology. Spleen, liver, and thymus samples were fixed in 10% neutral buffered formalin and paraffin embedded. Thin sections (5 μm) were cut on a microtome and stained with hematoxylin and eosin using standard protocols. Chloroacetate esterase staining was performed using a Leder stain kit (Sigma).
All 3 such mice in this experiment died within 3-4 weeks of pIpC treatment, with AML and ALL (FIG. 9c).

[1] = test system: established leukemias (AML and ALL); assay: Rapamycin against established leukemias in mice transplanted with Pten fl/fl Mx-1-Cre bone marrow cells, starting 15 weeks after pIpC; type: in vivo; details: daily 4 mg/kg from 15 weeks after pIpC
Protocol: as §1, §2
To test if rapamycin was effective against established leukemias, mice that had been transplanted with Pten^fl/fl Mx-1-Cre bone marrow cells were treated with daily injections of vehicle or rapamycin, beginning 15 weeks after pIpC.
Mice that had been transplanted with 1×10^6 Pten^fl/fl Mx-1-Cre donor (CD45.2^+) bone marrow cells along with 0.5×10^6 control (CD45.1^+) bone marrow cells were treated with daily injections of vehicle or rapamycin (4 mg/kg), starting 15 weeks after pIpC treatment.

[2] = test system: Flk2^−Sca-1^+Lin^−c-kit^+CD48^− cells (HSCs); details: mouse, in vivo
Excerpt: Flow cytometry and the isolation of hematopoietic stem cells (HSCs). Bone marrow cells were flushed from long bones with Hank's buffered salt solution without calcium or magnesium, supplemented with 2% heat-inactivated calf serum (GIBCO, Grand Island, N.Y.; HBSS^+). Cells were triturated and filtered through a nylon screen (45 μm, Sefar America, Kansas City, Mo.) to obtain a single cell suspension. Flk2^−Sca-1^+ Lineage^− c-kit^+ CD48^− HSCs and Thy1.1^low Sca-1^+ Mac-1^low CD4^low B220 MPPs were isolated as previously described (See, e.g., Christensen and Weissman, Proc Natl Acad Sci USA 98, 14541-6 (2001); Kiel et al., Cell 121, 1109-21 (2005); Morrison and Weissman, Immunity 1, 661-673 (1994)). For isolation of Flk2^−Sca-1^+ Lineage c-kit^+ CD48^− HSCs, whole bone marrow cells were incubated with unconjugated monoclonal antibodies to lineage markers including B220 (6B2), CD3 (KT31.1), CD4 (GK1.5), CD5 (53-7.3), CD8 (53-6.7), Gr-1 (8C5), Mac-1 (M1/70) and Terl19. Following dilution, pelleted cells were resuspended in anti-rat IgG-specific F(ab)2 conjugated to phycoerythrin (PE; Jackson ImmunoResearch, West Grove, Pa.). […] When CD45.2^+ HSCs were analyzed, CD45.2 (104-FITC; BD PharMingen) and CD48 (HM48-1-PE, eBioscience) were used. […]
Cell cycle analysis. BrdU incorporation was measured by flow-cytometry (BD PharMingen). […]

## CO[C@H]1C[C@@H]2CC[C@@H](C)[C@@](O)(O2)C(=O)C(=O)N2CCCC[C@H]2C(=O)O[C@H]([C@H](C)C[C@@H]2CC[C@@H](O)[C@H](OC)C2)CC(=O)[C@H](C)/C=C(\C)[C@@H](O)[C@@H](OC)C(=O)[C@H](C)C[C@H](C)/C=C/C=C/C=C/1C [Rapamycin]
Pten^fl/flMx-1-Cre mice
  bone marrow and spleen cellularity in control mice: without significantly affecting
[1]; average of 3 mice
  Bone marrow HSCs that were donor type, average: 39 ± 6%
[1]; individual mice, Pten-deficient donor (CD45.2+) HSCs, 4 mg/kg
  Bone marrow HSCs that were donor type: 35% and 45% and 36%
[2]
  HSC numbers in control mice: without affecting
  proliferation of HSCs from control littermates: without affecting
